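Where inhibition never reached the appropriate level, the endpoint shown equals the highest concentration tested. Otherwise, values were interpolated linearly from a five-concentration, 48-hour dose response in 96-well plates. Definition used: TGI = concentration required for complete inhibition of growth.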 Where a SMILES comes first, the peptide text is derived from it. The star is where a group is joined. Boc = CC(C)(C)OC(=O)*
Legend:
Experiment in all cases: NCI-60 cell line screen, 48 h
U251 CNS = system: U251 CNS
SNB-75 CNS = system: SNB-75 CNS
PC-3 prostate = system: PC-3 prostate
RXF 393 renal = system: RXF 393 renal
HL-60(TB) leukemia = system: HL-60(TB) leukemia
OVCAR-8 ovarian = system: OVCAR-8 ovarian
UO-31 renal = system: UO-31 renal
T-47D breast = system: T-47D breast
MDA-MB-231 breast = system: MDA-MB-231 breast
HCC-2998 colon = system: HCC-2998 colon
KM12 colon = system: KM12 colon
SK-MEL-5 melanoma = system: SK-MEL-5 melanoma
HCT-15 colon = system: HCT-15 colon
OVCAR-5 ovarian = system: OVCAR-5 ovarian
MDA-MB-435 = system: MDA-MB-435
CCRF-CEM leukemia = system: CCRF-CEM leukemia
NCI/ADR-RES ovarian = system: NCI/ADR-RES ovarian
OVCAR-4 ovarian = system: OVCAR-4 ovarian
NCI-H522 lung = system: NCI-H522 lung
SF-268 CNS = system: SF-268 CNS

| SMILES | TGI (U251 CNS) | TGI (SNB-75 CNS) | TGI (PC-3 prostate) | TGI (RXF 393 renal) | TGI (HL-60(TB) leukemia) | TGI (OVCAR-8 ovarian) | TGI (UO-31 renal) | TGI (T-47D breast) | TGI (MDA-MB-231 breast) | TGI (HCC-2998 colon) | TGI (KM12 colon) | TGI (SK-MEL-5 melanoma) | TGI (HCT-15 colon) | TGI (OVCAR-5 ovarian) | TGI (MDA-MB-435) | TGI (CCRF-CEM leukemia) | TGI (NCI/ADR-RES ovarian) | TGI (OVCAR-4 ovarian) | TGI (NCI-H522 lung) | TGI (SF-268 CNS) |
| --- | --- | --- | --- | --- | --- | --- | --- | --- | --- | --- | --- | --- | --- | --- | --- | --- | --- | --- | --- | --- |
| COC(=O)C(Cc1c[nH]c2ccccc12)NC(=O)C(Cc1c[nH]c2ccccc12)NC(=O)C(Cc1c[nH]c2ccccc12)NC(=O)OC(C)(C)C (stereo not drawn) (Boc-Trp-Trp-Trp-OMe; configuration not given here) | 32.4 µM | 42 µM | 30 µM | 21 µM | 47.4 µM | 38.8 µM | > 100 µM | 29.4 µM | 93.1 µM | 32.9 µM | 38.2 µM | > 100 µM | 41.4 µM | 32 µM |  |  |  |  |  |  |
| CCOC(=O)CCSS(=O)(=O)C(F)(F)F | > 100 µM | > 100 µM | > 100 µM | > 100 µM | > 100 µM | > 100 µM | > 100 µM | > 100 µM |  | > 100 µM | > 100 µM | > 100 µM | > 100 µM | > 100 µM | > 100 µM | > 100 µM | > 100 µM | > 100 µM |  |  |
| CCOc1ncn(-c2ccc(NC(=S)Nc3cnccn3)cc2)n1 | > 10 µM | > 10 µM |  | > 10 µM | > 10 µM | > 10 µM | > 10 µM | > 10 µM | > 10 µM |  | > 10 µM |  | > 10 µM | > 10 µM | > 10 µM | > 10 µM | > 10 µM | > 10 µM | > 10 µM | > 10 µM |
| COc1cc2c(cc1OC)C(=O)Cc1ccc3c(c1CNCC2)OCO3 | > 100 µM | > 100 µM |  |  |  | > 100 µM | > 100 µM |  |  | > 100 µM | > 100 µM | > 100 µM | > 100 µM | > 100 µM |  | > 100 µM |  | > 100 µM | > 100 µM | > 100 µM |
| COC(=O)CCCC(=O)NC1=C(Nc2ccccc2)C(=O)c2ccccc2C1=O | 29.3 µM | 33.8 µM |  |  | 49.7 µM | > 100 µM | 46.1 µM | 64.8 µM | 43.8 µM | 29.5 µM | 20.2 µM |  | 41.1 µM | 30.7 µM | 17.4 µM | 76.2 µM | 56 µM | 37.1 µM | 35.3 µM | 96.3 µM |
| Cc1nc2nn(Cc3ccccc3)cc2c(=O)o1 | > 100 µM | > 100 µM |  | > 100 µM | > 100 µM | > 100 µM | > 100 µM |  |  | > 100 µM | > 100 µM | > 100 µM | > 100 µM | > 100 µM |  | > 100 µM |  |  |  | > 100 µM |
| OC12CC3c4ccccc4NC3C3Oc4cccc5c4C31CCN(CC1CC1)C2C5 (centres undefined) | 31.1 µM | 31.5 µM | 32.1 µM | 27.7 µM |  | 32.3 µM | 30.4 µM | 42.6 µM | 32.4 µM |  | 37.3 µM | 31.5 µM | 35.1 µM | 46.3 µM | 32.3 µM | 71 µM | 47.4 µM | 55.5 µM | 39.7 µM | 41.1 µM |
| COc1cc(OC)cc(-n2c(N)c(-c3nc4ccccc4s3)c3ccc([N+](=O)[O-])cc3c2=O)c1 | > 100 µM | > 100 µM |  |  | 13 µM | > 100 µM | > 100 µM | > 100 µM | > 100 µM | > 100 µM | > 100 µM | > 100 µM | > 100 µM |  | > 100 µM | > 100 µM | > 100 µM | 78.9 µM | > 100 µM | > 100 µM |
| OC1CSCCCSCCSCCCSC1 | > 100 µM | > 100 µM | > 100 µM | > 100 µM |  | > 100 µM | > 100 µM | > 100 µM | > 100 µM | > 100 µM |  | > 100 µM | > 100 µM | > 100 µM | > 100 µM |  |  | > 100 µM | > 100 µM | > 100 µM |
| CC(C)(C)OC(=O)NNC(=O)C1Cc2ccccc2OC1=O (centres undefined) | > 100 µM |  | > 100 µM | > 100 µM |  | > 100 µM | > 100 µM |  |  | > 100 µM | > 100 µM | > 100 µM | > 100 µM | > 100 µM | > 100 µM |  | > 100 µM |  | > 100 µM | > 100 µM |
| O=S(Nc1ccccc1)c1ccc(-c2ccccc2)cc1 (centres undefined) | > 100 µM |  |  |  | > 100 µM | > 100 µM | > 100 µM | > 100 µM | > 100 µM | > 100 µM | > 100 µM | > 100 µM | > 100 µM | > 100 µM | > 100 µM | > 100 µM | > 100 µM | > 100 µM | > 100 µM | > 100 µM |
| C/C(=N/NC(=S)N(C)CCc1ccccn1)c1cnccn1 | 12.3 µM | 18.4 µM | 16.1 µM | 13.9 µM | > 100 µM | 0.385 µM | 0.272 µM |  | 21.2 µM | 33.8 µM | 19.4 µM | 17.8 µM | 29 µM | 22 µM | 35.7 µM | > 68.2 µM |  | 5.93 µM | 20.8 µM | 14.9 µM |
| CCc1cccc(CC)c1Nc1nc2c(s1)C(=O)c1ccccc1C2=O | 29.8 µM | 25.4 µM | 30.2 µM | 40.3 µM | > 100 µM |  | 29.2 µM | > 100 µM | 41.4 µM | 35.6 µM | 41 µM | 47.9 µM | 98.1 µM | 39.7 µM | 31.9 µM | > 100 µM |  |  | 83.3 µM | 41.7 µM |
| CC1=CSC(O)(c2ccc(Cl)cc2)c2noc(=O)n21 (centres undefined) |  | > 100 µM | > 100 µM | > 100 µM |  | > 100 µM | > 100 µM | > 100 µM | > 100 µM | > 100 µM | > 100 µM | > 100 µM | > 100 µM | > 100 µM | > 100 µM |  | > 100 µM | > 100 µM |  | > 100 µM |

Source: PubChem BioAssay (NCI)
